# Results: ChEMBL document CHEMBL1145498, “A systematic interaction map of validated kinase inhibitors with Ser/Thr kinases” (Proc Natl Acad Sci U S A, 2007)
# Columns and labels:
# [1] = target: Calcium/calmodulin-dependent protein kinase type 1D (Homo sapiens) (UniProt Q8IU85)
# [2] = target: T1, Serine/threonine-protein kinase VRK1 (Homo sapiens) (UniProt Q99986)
# T1 sequence (whole entry): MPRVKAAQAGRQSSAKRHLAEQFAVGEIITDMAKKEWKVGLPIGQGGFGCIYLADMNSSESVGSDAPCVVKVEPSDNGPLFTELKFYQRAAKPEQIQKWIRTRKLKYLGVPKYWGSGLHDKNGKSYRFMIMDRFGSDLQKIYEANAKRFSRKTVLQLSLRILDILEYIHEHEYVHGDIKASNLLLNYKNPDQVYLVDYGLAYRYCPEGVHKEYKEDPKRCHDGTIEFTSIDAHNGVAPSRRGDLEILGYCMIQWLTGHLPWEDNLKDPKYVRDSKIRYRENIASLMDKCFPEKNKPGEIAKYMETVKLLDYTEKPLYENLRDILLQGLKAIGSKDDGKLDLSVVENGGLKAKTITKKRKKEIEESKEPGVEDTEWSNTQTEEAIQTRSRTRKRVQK
# [3] = target: Cyclin-dependent kinase 6 (Homo sapiens) (UniProt Q00534)
# [4] = target: Serine/threonine-protein kinase pim-1 (Homo sapiens) (UniProt P11309)
# [5] = target: Mitogen-activated protein kinase 3 (Homo sapiens, UniProt P27361)
# [6] = target: Serine/threonine-protein kinase 10 (Homo sapiens) (UniProt O94804)
# [7] = target: Ribosomal protein S6 kinase alpha-3 (Homo sapiens) (UniProt P51812)
# [8] = target: Serine/threonine-protein kinase PAK 4 (Homo sapiens) (UniProt O96013)
# [9] = target: Calcium/calmodulin-dependent protein kinase type II subunit beta (Homo sapiens) (UniProt Q13554)
# [10] = target: Mitogen-activated protein kinase 6 (Homo sapiens) (UniProt Q16659)
# [11] = target: Cyclin-dependent kinase 16 (Homo sapiens) (UniProt Q00536)
# [12] = target: Tyrosine-protein kinase JAK1 (Homo sapiens) (UniProt P23458)
# [13] = target: Dual specificity protein kinase CLK1 (Homo sapiens) (UniProt P49759)
# [14] = target: T2, Mitogen-activated protein kinase kinase kinase 5 (Homo sapiens) (UniProt Q99683)
# T2 sequence (whole entry): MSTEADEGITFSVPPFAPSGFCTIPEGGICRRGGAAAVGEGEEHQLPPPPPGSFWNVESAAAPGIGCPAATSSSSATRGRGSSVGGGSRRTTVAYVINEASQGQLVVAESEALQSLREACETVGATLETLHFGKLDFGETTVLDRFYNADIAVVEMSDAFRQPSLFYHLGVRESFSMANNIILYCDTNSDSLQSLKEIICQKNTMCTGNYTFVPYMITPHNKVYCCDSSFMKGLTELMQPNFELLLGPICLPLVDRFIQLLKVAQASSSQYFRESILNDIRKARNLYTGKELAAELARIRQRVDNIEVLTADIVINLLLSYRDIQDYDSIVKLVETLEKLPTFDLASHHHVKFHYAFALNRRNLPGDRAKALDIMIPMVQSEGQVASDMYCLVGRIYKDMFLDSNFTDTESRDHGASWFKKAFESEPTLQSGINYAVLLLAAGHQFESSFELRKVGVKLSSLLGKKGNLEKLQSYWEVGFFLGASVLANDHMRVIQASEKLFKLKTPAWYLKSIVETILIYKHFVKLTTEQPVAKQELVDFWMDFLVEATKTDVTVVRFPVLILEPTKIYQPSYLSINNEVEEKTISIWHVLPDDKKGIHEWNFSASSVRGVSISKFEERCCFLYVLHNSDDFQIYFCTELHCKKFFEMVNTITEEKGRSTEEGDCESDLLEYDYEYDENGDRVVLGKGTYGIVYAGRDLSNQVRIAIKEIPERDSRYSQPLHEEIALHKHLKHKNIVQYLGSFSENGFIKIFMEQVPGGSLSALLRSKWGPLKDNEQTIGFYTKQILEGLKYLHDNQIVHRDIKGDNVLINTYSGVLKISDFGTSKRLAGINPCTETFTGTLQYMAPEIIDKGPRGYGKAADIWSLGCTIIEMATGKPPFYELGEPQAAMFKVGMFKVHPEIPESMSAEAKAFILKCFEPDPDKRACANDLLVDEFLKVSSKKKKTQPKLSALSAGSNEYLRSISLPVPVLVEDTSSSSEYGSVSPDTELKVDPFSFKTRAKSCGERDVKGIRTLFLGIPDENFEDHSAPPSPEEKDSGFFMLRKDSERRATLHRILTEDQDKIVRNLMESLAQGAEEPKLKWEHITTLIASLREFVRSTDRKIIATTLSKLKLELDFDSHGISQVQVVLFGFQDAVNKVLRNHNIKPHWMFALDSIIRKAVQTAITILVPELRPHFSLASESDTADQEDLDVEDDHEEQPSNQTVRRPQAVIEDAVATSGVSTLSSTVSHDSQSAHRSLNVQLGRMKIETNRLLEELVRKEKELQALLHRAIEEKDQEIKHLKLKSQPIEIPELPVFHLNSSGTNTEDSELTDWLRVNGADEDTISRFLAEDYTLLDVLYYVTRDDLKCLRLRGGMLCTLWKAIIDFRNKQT
# [15] = target: Serine/threonine-protein kinase OSR1 (Homo sapiens) (UniProt O95747)
# [16] = target: Serine/threonine-protein kinase PAK 5 (Homo sapiens) (UniProt Q9P286)
# [17] = target: Casein kinase I isoform gamma-2 (Homo sapiens) (UniProt P78368)
# Casein kinase I isoform gamma-2 (Homo sapiens), sequence (P78368 whole entry, looked up, canonical isoform): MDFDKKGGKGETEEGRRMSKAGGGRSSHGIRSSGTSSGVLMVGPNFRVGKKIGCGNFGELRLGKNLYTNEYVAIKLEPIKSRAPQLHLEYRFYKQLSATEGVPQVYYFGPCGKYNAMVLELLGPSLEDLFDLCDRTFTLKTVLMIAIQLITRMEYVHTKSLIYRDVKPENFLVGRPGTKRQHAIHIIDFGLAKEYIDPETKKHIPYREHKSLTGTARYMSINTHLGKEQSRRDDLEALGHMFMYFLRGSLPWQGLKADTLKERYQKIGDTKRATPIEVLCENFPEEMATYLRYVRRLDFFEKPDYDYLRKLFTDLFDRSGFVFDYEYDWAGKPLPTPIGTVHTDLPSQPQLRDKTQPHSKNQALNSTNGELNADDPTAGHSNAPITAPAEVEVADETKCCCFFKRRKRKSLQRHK
# Mitogen-activated protein kinase 3, sequence (P27361 whole entry): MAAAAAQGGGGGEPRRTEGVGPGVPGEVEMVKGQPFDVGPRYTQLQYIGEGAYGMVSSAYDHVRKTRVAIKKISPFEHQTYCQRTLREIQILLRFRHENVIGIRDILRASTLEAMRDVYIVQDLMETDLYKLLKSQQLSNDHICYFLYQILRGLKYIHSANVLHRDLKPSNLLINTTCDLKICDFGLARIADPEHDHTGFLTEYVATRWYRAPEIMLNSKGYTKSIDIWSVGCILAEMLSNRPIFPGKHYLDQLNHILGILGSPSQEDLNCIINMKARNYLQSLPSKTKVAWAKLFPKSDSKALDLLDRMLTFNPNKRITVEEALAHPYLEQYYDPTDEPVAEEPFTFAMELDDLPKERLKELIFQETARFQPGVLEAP
# Serine/threonine-protein kinase 10 (Homo sapiens), sequence (O94804 whole entry, looked up): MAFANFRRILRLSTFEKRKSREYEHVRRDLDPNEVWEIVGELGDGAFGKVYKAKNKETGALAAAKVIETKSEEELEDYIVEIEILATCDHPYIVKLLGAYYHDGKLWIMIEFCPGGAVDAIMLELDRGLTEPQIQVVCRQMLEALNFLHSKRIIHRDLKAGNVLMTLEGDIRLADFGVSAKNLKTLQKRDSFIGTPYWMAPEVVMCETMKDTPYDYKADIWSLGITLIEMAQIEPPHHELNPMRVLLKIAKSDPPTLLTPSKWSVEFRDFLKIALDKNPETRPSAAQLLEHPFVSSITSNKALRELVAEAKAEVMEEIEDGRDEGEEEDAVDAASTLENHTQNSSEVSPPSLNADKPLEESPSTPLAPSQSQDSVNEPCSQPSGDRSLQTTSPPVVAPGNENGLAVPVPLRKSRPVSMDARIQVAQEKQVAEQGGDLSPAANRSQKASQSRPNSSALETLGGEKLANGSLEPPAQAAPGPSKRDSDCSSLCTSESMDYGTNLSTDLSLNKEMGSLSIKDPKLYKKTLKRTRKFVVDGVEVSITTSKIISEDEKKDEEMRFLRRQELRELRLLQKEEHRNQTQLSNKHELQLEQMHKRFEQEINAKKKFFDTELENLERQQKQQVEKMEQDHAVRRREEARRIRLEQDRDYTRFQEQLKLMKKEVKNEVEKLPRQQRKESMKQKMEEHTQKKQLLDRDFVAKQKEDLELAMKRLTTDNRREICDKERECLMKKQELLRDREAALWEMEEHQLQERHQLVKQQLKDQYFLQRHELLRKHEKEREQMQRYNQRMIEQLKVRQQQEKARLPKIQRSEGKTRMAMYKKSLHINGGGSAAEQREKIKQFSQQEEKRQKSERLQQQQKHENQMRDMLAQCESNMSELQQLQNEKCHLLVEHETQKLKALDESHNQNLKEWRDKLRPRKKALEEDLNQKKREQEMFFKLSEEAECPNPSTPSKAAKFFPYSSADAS
# Mitogen-activated protein kinase 6 (Homo sapiens), sequence (Q16659 whole entry): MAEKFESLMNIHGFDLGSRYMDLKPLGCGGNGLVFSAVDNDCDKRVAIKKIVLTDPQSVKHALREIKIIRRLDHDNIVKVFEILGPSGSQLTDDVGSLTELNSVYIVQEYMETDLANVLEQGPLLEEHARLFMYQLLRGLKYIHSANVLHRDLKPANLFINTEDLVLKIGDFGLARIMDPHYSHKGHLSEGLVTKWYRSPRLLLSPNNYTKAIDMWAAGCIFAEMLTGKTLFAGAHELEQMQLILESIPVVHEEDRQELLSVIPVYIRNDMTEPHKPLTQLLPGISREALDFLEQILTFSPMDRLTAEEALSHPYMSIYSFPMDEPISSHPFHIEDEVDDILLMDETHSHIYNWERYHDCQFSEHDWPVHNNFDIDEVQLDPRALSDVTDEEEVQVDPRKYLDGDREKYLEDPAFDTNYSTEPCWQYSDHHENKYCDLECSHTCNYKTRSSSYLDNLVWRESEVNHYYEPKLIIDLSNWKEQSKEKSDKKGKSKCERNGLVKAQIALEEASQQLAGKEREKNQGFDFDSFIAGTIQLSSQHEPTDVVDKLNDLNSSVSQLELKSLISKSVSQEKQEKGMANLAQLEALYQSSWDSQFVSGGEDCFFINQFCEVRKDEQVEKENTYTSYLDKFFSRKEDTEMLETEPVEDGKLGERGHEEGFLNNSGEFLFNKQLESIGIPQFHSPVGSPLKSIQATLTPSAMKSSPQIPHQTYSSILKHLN
# Calcium/calmodulin-dependent protein kinase type 1D (Homo sapiens), sequence (Q8IU85 whole entry, looked up): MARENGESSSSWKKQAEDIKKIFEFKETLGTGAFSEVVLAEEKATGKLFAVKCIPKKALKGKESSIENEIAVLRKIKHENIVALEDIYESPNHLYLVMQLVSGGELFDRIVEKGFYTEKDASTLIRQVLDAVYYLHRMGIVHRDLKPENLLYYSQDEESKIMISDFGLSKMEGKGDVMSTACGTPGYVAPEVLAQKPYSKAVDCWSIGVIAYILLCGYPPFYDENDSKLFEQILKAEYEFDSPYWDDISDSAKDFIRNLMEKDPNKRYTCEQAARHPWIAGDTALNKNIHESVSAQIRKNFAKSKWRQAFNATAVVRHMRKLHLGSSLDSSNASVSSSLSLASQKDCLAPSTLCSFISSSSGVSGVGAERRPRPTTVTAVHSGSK
# Calcium/calmodulin-dependent protein kinase type II subunit beta (Homo sapiens), sequence (Q13554 whole entry): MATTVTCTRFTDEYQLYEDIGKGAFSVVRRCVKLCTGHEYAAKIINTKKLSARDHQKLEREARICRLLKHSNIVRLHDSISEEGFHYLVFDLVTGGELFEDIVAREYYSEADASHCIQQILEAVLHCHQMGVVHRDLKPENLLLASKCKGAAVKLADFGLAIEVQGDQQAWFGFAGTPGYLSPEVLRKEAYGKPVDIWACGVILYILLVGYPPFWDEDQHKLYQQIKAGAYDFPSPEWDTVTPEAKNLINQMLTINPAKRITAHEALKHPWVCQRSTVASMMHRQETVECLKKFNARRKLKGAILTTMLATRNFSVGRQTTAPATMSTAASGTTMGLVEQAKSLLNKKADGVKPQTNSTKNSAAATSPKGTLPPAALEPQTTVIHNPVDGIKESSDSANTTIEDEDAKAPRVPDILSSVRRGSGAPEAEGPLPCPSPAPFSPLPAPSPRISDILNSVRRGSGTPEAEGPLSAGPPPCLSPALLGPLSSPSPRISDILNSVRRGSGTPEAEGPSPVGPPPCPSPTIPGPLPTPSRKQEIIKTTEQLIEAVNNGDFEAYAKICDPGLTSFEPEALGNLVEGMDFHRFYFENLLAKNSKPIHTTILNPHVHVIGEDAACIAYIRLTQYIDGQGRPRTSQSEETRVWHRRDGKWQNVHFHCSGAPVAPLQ
# Serine/threonine-protein kinase PAK 5 (Homo sapiens), sequence (Q9P286 whole entry, looked up, canonical isoform): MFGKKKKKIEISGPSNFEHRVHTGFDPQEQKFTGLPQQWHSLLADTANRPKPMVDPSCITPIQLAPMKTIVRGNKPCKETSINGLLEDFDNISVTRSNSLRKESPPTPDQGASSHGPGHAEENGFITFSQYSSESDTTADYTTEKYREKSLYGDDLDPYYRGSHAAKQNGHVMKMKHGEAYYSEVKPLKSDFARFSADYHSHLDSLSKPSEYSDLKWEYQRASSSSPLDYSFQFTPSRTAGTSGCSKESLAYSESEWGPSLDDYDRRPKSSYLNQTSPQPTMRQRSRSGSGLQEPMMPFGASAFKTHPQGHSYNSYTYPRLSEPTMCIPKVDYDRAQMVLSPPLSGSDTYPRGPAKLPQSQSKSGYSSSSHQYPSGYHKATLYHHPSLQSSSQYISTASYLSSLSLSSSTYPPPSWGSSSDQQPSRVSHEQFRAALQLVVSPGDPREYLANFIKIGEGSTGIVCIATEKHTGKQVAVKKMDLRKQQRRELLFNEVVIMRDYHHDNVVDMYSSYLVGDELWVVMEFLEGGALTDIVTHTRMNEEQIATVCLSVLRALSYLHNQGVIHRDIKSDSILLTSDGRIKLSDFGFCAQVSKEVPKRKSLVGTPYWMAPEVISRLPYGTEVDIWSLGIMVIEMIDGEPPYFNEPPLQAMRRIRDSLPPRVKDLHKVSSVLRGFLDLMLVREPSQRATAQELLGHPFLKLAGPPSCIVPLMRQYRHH
# Serine/threonine-protein kinase OSR1 (Homo sapiens), sequence (O95747 2-527 limits assumed): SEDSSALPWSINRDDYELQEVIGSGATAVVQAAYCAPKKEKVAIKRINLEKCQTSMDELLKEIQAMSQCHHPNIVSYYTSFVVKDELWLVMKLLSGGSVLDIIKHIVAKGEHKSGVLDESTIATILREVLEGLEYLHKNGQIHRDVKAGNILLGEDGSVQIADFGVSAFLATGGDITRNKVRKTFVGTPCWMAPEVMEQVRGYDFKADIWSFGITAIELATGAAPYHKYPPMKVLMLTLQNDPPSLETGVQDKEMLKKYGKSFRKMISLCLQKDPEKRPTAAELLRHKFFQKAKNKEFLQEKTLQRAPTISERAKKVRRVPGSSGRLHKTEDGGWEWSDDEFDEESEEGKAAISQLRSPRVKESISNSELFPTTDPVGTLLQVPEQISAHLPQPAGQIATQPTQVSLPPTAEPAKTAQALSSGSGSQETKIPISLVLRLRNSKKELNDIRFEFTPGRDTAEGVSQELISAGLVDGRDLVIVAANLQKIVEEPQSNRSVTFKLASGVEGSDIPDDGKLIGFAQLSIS
SMILES,ΔTm [1] [°C],ΔTm [2] [°C],ΔTm [3] [°C],ΔTm [4] [°C],ΔTm [5] [°C],ΔTm [6] [°C],ΔTm [7] [°C],ΔTm [8] [°C],ΔTm [9] [°C],ΔTm [10] [°C],ΔTm [11] [°C],ΔTm [12] [°C],ΔTm [13] [°C],ΔTm [14] [°C],ΔTm [15] [°C],ΔTm [16] [°C],ΔTm [17] [°C]
COc1cc2c(cc1OC)-c1n[nH]c(Nc3cccc(F)c3)c1C2,0.3,0.4,1.7,0.5,0.6,2.5,2.8,0,-0.3,-0.3,-0.3,0.4,0.1,4,0.6,-0.1,0.3
Cc1ccc(NC2=CC(=O)c3sc(C)nc3C2=O)cc1,-1.6,–,-1.7,-1.3,-1.5,-0.7,-0.9,-0.7,-0.6,-0.3,-0.9,-0.9,-0.8,-0.2,-0.2,0.4,0
NCCNc1ncc(C(N)=O)c(Nc2cccc(C(F)(F)F)c2)n1,5.1,3.6,1.1,5.7,0.9,2.8,2.6,6.1,0.4,3,0.1,1.4,2.2,-0.1,5.4,5.2,0.7
Cc1nc(N)sc1-c1ccnc(Nc2cccc([N+](=O)[O-])c2)n1,2.5,–,4.3,1.1,2.7,1.5,10.7,1.6,–,2.1,3.9,4.8,7,1.2,1.2,7.1,5.1
CC(C)[C@H](CO)Nc1nc(Nc2cc(N)cc(Cl)c2)c2ncn(C(C)C)c2n1 [AMINOPURVALANOL],0.7,–,–,1.2,0.2,2.7,3.4,-0.1,0.5,1.5,8.1,0.1,5.5,2.4,2.6,0.3,1.8
COc1ccc(Cl)cc1NC(=O)Nc1cc(C)nc2ccccc12,2.2,–,0.4,-1.1,2.5,0.6,0.4,-0.6,0.3,2.1,0.5,0.5,0.5,2.2,0.6,2.6,-0.1
CN1CCc2[nH]c(=S)c(C#N)c(-c3cccs3)c2C1,1.3,–,0.1,1.4,0.6,7.2,0.9,-0.4,-0.2,1.2,4.1,-0.1,2.4,4.7,0.8,0.8,5.2
O=C(Nc1cccc(Nc2cc(Nc3cccc(C(F)(F)F)c3)ncn2)c1)C1CC1,2.6,–,0.1,1,1.5,0,2.6,0.9,2.9,2.1,3.9,1.7,1.9,0.9,0.9,1,2.3
O=C(Nc1cccc(Nc2nccc(Nc3cccc(C(F)(F)F)c3)n2)c1)C1CC1 [ANILINOPYRIMIDINE1],2.8,–,0.8,7.3,0.9,1,5.7,1.5,1,1.8,3.2,2.6,1.9,0.2,1.2,2.6,6.5
CC(C)c1nn(-c2c(Cl)cccc2Cl)c2nc(Cc3ccc(OCCO)cc3)[nH]c(=O)c12,0.1,–,0.5,0,3.4,0.6,3.5,2.2,0.9,0,-0.6,0.2,3.6,1,2.9,6.2,-0.3
CN(c1cccnc1)c1cc2c(Nc3ccc(F)c(Cl)c3)c(C#N)cnc2cn1,1.9,–,-0.6,0.1,-1.9,2.8,1.7,2.6,1.2,4.2,0.1,0.4,4.9,1.4,0.3,1,0.4
Cc1[nH]c(/C=C2\C(=O)Nc3ccc(S(=O)(=O)N(C)c4cccc(Cl)c4)cc32)c(C)c1C(=O)N1CCN(C)CC1,0.4,1.5,-0.4,-0.2,0.1,1.8,11.3,1.4,0.8,1.4,-0.6,3.4,2.1,-0.7,1.6,0.9,0.3
COc1cc2ncnc(Nc3ccc(NC(=O)c4ccccc4)cc3)c2cc1OC [ANILINOQUINAZOLINE1],0.7,0.5,1.1,0.7,0.4,0.1,9.4,0,0.3,-0.1,-1.4,1.9,1,0.1,0.3,-0.2,0.5
